Measured values: US11981658B2, “Substituted aminopyridine compounds as EGFR inhibitors” (YUHAN CORPORATION, priority 2021, dated 2024)
Like-named read-outs stand apart in the source and are kept apart here.

Legend:
EGFR Del19/T790M/C797S = EGFR Del19/T790M/C797S (Homo sapiens, UniProt P00533, C797S/DEL746-750/T790M); test: Biochemical EGFR kinase inhibition assay (Lance Ultra TR-FRET), triple mutant del19/T790M/C797S
Outline: (§1)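 Kinase activity is measured by TR-FRET phosphopeptide detection. Compounds span 0.003 μM to 10 μM; the 1 h reaction at room temperature is quenched with EDTA, then labelled antibody (2 nM) is incubated 60 min before reading.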

EGFR L858R/T790M/C797S = EGFR L858R/T790M/C797S (Homo sapiens, UniProt P00533, C797S/L858R/T790M); test: Biochemical EGFR kinase inhibition assay (Lance Ultra TR-FRET), triple mutant L858R/T790M/C797S
Outline: as §1

EGFR Del19/C797S = EGFR Del19/C797S (Homo sapiens, UniProt P00533, C797S/DEL746-750); test: Biochemical EGFR kinase inhibition assay (Lance Ultra TR-FRET), double mutant del19/C797S
EGFR Del19/C797S, sequence (P00533 with tags, fused parts or gaps DEL746-750/C797S): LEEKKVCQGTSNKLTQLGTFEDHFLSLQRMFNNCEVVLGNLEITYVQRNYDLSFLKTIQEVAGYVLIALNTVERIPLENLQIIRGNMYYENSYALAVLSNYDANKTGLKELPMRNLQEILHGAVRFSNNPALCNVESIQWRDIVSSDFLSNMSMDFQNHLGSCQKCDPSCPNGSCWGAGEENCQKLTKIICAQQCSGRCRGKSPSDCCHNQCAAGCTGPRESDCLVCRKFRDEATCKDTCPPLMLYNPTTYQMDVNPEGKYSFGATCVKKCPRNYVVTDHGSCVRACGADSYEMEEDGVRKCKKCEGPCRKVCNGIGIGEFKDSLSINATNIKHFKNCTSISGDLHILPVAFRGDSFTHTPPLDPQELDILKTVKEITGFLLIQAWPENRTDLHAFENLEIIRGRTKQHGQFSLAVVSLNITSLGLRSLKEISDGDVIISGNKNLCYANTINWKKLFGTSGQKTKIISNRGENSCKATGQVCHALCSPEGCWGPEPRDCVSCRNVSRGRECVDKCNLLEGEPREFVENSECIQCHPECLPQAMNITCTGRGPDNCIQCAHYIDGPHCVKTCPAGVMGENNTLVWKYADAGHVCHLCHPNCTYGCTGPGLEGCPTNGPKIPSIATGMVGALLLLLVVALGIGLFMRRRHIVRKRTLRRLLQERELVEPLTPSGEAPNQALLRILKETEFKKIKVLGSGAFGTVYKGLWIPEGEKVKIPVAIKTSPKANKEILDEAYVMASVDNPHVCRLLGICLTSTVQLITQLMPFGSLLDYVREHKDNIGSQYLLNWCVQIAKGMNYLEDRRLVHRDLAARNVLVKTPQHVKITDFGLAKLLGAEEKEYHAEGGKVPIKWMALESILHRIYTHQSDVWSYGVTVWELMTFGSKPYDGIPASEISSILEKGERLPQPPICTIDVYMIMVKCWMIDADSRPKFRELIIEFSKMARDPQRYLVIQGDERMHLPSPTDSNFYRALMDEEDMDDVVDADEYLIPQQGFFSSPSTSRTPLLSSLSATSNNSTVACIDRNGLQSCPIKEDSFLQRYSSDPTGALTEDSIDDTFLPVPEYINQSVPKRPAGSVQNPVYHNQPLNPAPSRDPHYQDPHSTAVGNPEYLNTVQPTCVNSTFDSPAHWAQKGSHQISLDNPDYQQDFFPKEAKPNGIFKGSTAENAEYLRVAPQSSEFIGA
Outline: as §1

EGFR L858R/C797S = EGFR L858R/C797S (Homo sapiens, UniProt P00533, C797S/L858R); test: Biochemical EGFR kinase inhibition assay (Lance Ultra TR-FRET), double mutant L858R/C797S
EGFR L858R/C797S, sequence (P00533 25-1210 C797S/L858R): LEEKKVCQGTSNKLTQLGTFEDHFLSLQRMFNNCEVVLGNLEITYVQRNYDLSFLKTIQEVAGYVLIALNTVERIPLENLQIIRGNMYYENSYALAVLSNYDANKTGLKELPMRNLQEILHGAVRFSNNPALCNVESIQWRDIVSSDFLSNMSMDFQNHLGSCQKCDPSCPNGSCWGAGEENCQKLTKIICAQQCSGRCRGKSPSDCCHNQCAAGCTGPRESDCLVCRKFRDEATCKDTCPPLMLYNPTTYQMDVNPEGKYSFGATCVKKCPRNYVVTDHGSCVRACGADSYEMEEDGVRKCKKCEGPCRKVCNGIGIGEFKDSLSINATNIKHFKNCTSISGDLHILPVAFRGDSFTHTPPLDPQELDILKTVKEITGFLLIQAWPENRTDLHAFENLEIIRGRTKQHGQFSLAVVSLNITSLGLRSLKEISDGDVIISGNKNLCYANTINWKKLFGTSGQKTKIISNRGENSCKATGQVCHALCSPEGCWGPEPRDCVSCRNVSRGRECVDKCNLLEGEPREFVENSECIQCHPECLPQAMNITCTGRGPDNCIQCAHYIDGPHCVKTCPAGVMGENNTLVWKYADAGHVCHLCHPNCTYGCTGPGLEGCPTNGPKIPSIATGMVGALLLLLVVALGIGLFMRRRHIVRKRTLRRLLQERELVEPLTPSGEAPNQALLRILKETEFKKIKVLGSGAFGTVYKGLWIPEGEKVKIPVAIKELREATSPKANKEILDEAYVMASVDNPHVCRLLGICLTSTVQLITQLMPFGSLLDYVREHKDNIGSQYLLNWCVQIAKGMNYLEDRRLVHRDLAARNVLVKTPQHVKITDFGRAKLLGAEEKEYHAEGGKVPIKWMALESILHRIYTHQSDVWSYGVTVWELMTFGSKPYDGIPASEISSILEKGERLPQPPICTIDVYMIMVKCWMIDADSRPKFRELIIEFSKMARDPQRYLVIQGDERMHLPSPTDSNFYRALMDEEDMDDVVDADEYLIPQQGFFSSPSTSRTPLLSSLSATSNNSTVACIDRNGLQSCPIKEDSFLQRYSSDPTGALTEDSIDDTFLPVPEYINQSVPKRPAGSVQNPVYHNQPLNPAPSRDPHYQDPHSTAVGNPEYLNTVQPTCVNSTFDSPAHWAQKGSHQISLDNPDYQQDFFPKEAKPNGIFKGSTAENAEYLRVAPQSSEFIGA
Outline: as §1

EGFR wildtype (WT) = EGFR wildtype (WT) (Homo sapiens, UniProt P00533); test: Biochemical EGFR kinase inhibition assay (Lance Ultra TR-FRET), wildtype
EGFR wildtype (WT), sequence (P00533 25-1210): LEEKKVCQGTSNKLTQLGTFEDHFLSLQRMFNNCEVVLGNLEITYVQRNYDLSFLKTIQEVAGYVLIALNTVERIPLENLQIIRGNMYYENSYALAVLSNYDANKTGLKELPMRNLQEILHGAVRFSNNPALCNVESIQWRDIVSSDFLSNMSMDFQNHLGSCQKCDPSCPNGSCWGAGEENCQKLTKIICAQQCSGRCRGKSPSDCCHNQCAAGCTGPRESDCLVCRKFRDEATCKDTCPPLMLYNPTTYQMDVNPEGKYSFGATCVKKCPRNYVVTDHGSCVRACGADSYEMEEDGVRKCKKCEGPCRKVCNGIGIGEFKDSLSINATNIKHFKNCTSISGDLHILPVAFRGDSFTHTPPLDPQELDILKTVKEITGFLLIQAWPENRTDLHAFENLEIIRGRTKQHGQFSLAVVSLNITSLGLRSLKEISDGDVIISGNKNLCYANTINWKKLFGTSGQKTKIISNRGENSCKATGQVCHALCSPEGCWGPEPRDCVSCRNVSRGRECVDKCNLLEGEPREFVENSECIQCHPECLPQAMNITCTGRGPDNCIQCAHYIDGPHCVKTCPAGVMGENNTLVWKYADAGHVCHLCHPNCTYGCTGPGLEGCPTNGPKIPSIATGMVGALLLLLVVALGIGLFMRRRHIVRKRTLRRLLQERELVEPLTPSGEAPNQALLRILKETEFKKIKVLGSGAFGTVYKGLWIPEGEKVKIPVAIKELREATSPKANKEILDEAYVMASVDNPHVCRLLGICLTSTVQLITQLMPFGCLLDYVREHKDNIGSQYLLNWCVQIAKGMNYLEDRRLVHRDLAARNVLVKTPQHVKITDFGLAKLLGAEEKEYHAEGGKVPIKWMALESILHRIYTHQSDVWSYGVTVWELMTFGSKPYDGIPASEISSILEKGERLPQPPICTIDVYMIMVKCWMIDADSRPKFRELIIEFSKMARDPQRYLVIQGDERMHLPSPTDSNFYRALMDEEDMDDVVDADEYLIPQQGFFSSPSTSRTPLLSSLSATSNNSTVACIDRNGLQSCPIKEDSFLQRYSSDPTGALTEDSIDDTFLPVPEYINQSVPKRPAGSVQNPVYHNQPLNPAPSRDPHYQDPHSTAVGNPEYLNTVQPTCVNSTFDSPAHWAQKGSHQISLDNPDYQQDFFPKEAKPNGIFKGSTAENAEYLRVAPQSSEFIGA
Outline: as §1

[1] = IC50 Del19/T790M/C797S (nM), 100 μM ATP
[2] = Km ATP, read-out: IC50 Del19/T790M/C797S (nM) Km ATP
[3] = IC50 L858R/T790M/C797S (nM), 100 μM ATP
[4] = Km ATP, read-out: IC50 L858R/T790M/C797S (nM) Km ATP
[5] = IC50 Del19/C797S (nM), 100 μM ATP
[6] = Km ATP, read-out: IC50 Del19/C797S (nM) Km ATP
[7] = IC50 L858R/C797S (nM), 100 μM ATP
[8] = Km ATP, read-out: IC50 L858R/C797S (nM) Km ATP
[9] = Km ATP, read-out: IC50 WT (nM) Km ATP

EGFR Del19/T790M/C797S, sequence (P00533 with tags, fused parts or gaps DEL746-750/T790M/C797S): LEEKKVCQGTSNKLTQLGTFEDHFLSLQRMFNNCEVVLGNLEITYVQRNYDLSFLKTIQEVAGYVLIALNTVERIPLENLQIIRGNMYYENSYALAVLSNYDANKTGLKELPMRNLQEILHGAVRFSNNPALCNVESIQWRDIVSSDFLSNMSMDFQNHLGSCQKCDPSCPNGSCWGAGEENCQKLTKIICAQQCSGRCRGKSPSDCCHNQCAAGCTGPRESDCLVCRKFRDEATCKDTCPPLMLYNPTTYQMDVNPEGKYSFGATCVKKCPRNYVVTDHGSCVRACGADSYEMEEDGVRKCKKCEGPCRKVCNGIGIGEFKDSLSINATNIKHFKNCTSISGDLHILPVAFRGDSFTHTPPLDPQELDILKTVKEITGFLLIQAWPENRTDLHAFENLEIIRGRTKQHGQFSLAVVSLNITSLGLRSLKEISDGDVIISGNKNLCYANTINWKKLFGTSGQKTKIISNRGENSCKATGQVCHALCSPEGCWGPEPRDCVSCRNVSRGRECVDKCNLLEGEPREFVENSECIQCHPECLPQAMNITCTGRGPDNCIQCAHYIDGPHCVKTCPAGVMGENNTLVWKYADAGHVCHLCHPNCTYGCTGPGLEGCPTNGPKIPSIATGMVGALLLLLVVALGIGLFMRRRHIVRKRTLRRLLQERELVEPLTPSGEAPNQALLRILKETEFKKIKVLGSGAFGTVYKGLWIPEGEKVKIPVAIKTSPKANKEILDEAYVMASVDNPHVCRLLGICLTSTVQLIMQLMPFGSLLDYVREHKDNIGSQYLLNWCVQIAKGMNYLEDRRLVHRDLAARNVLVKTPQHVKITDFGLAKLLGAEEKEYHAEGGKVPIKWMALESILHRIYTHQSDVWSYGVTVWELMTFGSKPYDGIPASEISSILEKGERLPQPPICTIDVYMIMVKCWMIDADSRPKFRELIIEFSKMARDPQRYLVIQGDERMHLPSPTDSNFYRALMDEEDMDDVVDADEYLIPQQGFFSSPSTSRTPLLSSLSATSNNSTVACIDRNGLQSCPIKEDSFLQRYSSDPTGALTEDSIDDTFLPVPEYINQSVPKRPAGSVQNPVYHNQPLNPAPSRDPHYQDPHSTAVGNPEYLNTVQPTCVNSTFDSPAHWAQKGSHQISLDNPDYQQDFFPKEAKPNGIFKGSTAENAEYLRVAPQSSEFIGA

| SMILES | IC50 (EGFR Del19/T790M/C797S; [1]) | IC50 (EGFR Del19/T790M/C797S; [2]) | IC50 (EGFR L858R/T790M/C797S; [3]) | IC50 (EGFR L858R/T790M/C797S; [4]) | IC50 (EGFR Del19/C797S; [5]) | IC50 (EGFR Del19/C797S; [6]) | IC50 (EGFR L858R/C797S; [7]) | IC50 (EGFR L858R/C797S; [8]) | IC50 (EGFR wildtype (WT); IC50 WT (nM), 100 μM ATP) | IC50 (EGFR wildtype (WT); [9]) |
| --- | --- | --- | --- | --- | --- | --- | --- | --- | --- | --- |
| O=S(=O)(C1CC1)n1cc(-c2nccc(Nc3cc(N4CCCC(O)C4)c(C#Cc4cnn(C5CCOCC5)c4)cn3)n2)cn1 (stereo not shown) [Example 99, 1-(2-((2-(1-(Cyclopropylsulfonyl)-1H-pyrazol-4-yl)pyrimidin-4-yl)amino)-5-((1-(tetrahydro-2H-pyran-4-yl)-1H-pyrazol-4-yl)ethynyl)pyridin-4-yl)piperidin-3-ol] | 0.7 nM | 0.7 nM | 3 nM | 0.8 nM | 14 nM | 10.4 nM | 58.1 nM | 4.2 nM | > 10000 nM | 41.7 nM |
| O=S(=O)(C1CC1)n1cc(-c2nccc(Nc3cc(N4CCCC(CO)C4)c(C#Cc4cnn(C5CCOCC5)c4)cn3)n2)cn1 (stereo not shown) [Example 100, (1-(2-((2-(1-(Cyclopropylsulfonyl)-1H-pyrazol-4-yl)pyrimidin-4-yl)amino)-5-((1-(tetrahydro-2H-pyran-4-yl)-1H-pyrazol-4-yl)ethynyl)pyridin-4-yl)piperidin-3-yl)methanol] | 1.6 nM | 1.7 nM | 5.6 nM | 1.3 nM | 12.9 nM | 10.7 nM | 73.9 nM | 7.1 nM | > 10000 nM | 62 nM |
| CC1(CO)CCN(c2cc(Nc3ccnc(-c4cnn(S(=O)(=O)C5CC5)c4)n3)ncc2C#Cc2cnn(C(F)(F)F)c2)CC1 [Example 101, (1-(2-((2-(1-(Cyclopropylsulfonyl)-1H-pyrazol-4-yl)pyrimidin-4-yl)amino)-5-((1-(trifluoromethyl)-1H-pyrazol-4-yl)ethynyl)pyridin-4-yl)-4-methylpiperidin-4-yl)methanol] | 3.2 nM | 3.5 nM | 4.8 nM | 2.4 nM | 7.9 nM | 4.3 nM | 104 nM | 3 nM | > 10000 nM | 32 nM |
| O=S(=O)(C1CC1)n1cc(-c2nccc(Nc3cc(N[C@H]4CC[C@@H](O)CC4)c(C#Cc4cnn(C(F)(F)F)c4)cn3)n2)cn1 [Example 102, (1s,4s)-4-((2-((2-(1-(Cyclopropylsulfonyl)-1H-pyrazol-4-yl)pyrimidin-4-yl)amino)-5-((1-(trifluoromethyl)-1H-pyrazol-4-yl)ethynyl)pyridin-4-yl)amino)cyclohexan-1-ol] | 2.7 nM | 2.8 nM | 7.6 nM | 2.1 nM | 26.6 nM | 13.9 nM | 1030 nM | 15.7 nM | > 10000 nM | 186 nM |
| O=S(=O)(C1CC1)n1cc(-c2nccc(Nc3cc(N[C@H]4CCC[C@H](O)C4)c(C#Cc4cnn(C(F)(F)F)c4)cn3)n2)cn1 [Example 103, (1 S,3S)-3-((2-((2-(1-(Cyclopropylsulfonyl)-1H-pyrazol-4-yl)pyrimidin-4-yl)amino)-5-((1-(trifluoromethyl)-1H-pyrazol-4-yl)ethynyl)pyridin-4-yl)amino)cyclohexan-1-ol] | 3.5 nM | 2.7 nM | 8.5 nM | 2.8 nM | 87.3 nM | 66.8 nM | 1230 nM | 104 nM | > 10000 nM | 1070 nM |
| CC1(O)CC2(CCN(c3cc(Nc4ccnc(-c5cnn(S(=O)(=O)C6CC6)c5)n4)ncc3C#Cc3cnn(C(F)(F)F)c3)CC2)C1 [Example 104, 7-(2-((2-(1-(Cyclopropylsulfonyl)-1H-pyrazol-4-yl)pyrimidin-4-yl)amino)-5-((1-(trifluoromethyl)-1H-pyrazol-4-yl)ethynyl)pyridin-4-yl)-2-methyl-7-azaspiro[3.5]nonan-2-ol] | 4.1 nM | 3.1 nM | 3 nM | 1.1 nM | 12.4 nM | 9.7 nM | 119 nM | 32.3 nM | > 10000 nM | 89.4 nM |
| C[C@]1(O)CC[C@@H](Nc2cc(Nc3ccnc(-c4cnn(S(=O)(=O)C5CC5)c4)n3)ncc2C#Cc2cnn(C(F)(F)F)c2)CC1 [Example 105, (1s,4s)-4-((2-((2-(1-(Cyclopropylsulfonyl)-1H-pyrazol-4-yl)pyrimidin-4-yl)amino)-5-((1-(trifluoromethyl)-1H-pyrazol-4-yl)ethynyl)pyridin-4-yl)amino)-1-methylcyclohexan-1-ol] | 3.2 nM | 2.3 nM | 6.5 nM | 1.5 nM | 64.2 nM | 48.7 nM | 2200 nM | 100 nM | > 10000 nM | 2520 nM |
| Cn1ccc(C#Cc2cnc(Nc3ccnc(-c4cnn(S(=O)(=O)C5CC5)c4)n3)cc2N[C@H]2CC[C@@H](O)CC2)n1 [Example 106, (1s,4s)-4-((2-((2-(1-(Cyclopropylsulfonyl)-1H-pyrazol-4-yl)pyrimidin-4-yl)amino)-5-((1-methyl-1H-pyrazol-3-yl)ethynyl)pyridin-4-yl)amino)cyclohexan-1-ol] | 1.1 nM | 1 nM | 1.6 nM | 0.6 nM | 15.1 nM | 12.5 nM | 274 nM | 6.1 nM | > 10000 nM | 95.5 nM |
| Cn1ccc(C#Cc2cnc(Nc3ccnc(-c4cnn(S(=O)(=O)C5CC5)c4)n3)cc2N2CCC(C)(CO)CC2)n1 [Example 107, (1-(2-((2-(1-(Cyclopropylsulfonyl)-1H-pyrazol-4-yl)pyrimidin-4-yl)amino)-5-((1-methyl-1H-pyrazol-3-yl)ethynyl)pyridin-4-yl)-4-methylpiperidin-4-yl)methanol] | 1.2 nM | 1.2 nM | 1.3 nM | 0.6 nM | 4.6 nM | 3.2 nM | 85.6 nM | 1.9 nM | > 10000 nM | 24.1 nM |
| CC(=O)N1CCC(n2cc(C#Cc3cnc(Nc4ccnc(-c5cnn(S(=O)(=O)C6CC6)c5)n4)cc3N3CCC(=O)CC3)cn2)CC1 [Example 108, 1-(5-((1-(1-Acetylpiperidin-4-yl)-1H-pyrazol-4-yl)ethynyl)-2-((2-(1-(cyclopropylsulfonyl)-1H-pyrazol-4-yl)pyrimidin-4-yl)amino)pyridin-4-yl)piperidin-4-one] | 1.2 nM | 1.1 nM | 7.8 nM | 1.6 nM | 29.8 nM | 25.5 nM | 154 nM | 8.4 nM | > 10000 nM | 126 nM |
| CC(=O)N1CCC(n2cc(C#Cc3cnc(Nc4ccnc(-c5cnn(S(=O)(=O)C6CC6)c5)n4)cc3N[C@H]3CC[C@@H](O)CC3)cn2)CC1 [Example 109, 1-(4-(4-((6-((2-(1-(Cyclopropylsulfonyl)-1H-pyrazol-4-yl)pyrimidin-4-yl)amino)-4-(((1 s, 4s)-4-hydroxycyclohexyl)amino)pyridin-3-yl)ethynyl)-1H-pyrazol-1-yl)piperidin-1-yl)ethan-1-one] | 1 nM | 0.9 nM | 1.4 nM | 0.7 nM | 3 nM | 2.3 nM | 9.1 nM | 1.6 nM | > 10000 nM | 10.4 nM |
| CC(=O)N1CCC(n2cc(C#Cc3cnc(Nc4ccnc(-c5cnn(S(=O)(=O)C6CC6)c5)n4)cc3N3CCC(C)(CO)CC3)cn2)CC1 [Example 110, 1-(4-(4-((6-((2-(1-(Cyclopropylsulfonyl)-1H-pyrazol-4-yl)pyrimidin-4-yl)amino)-4-(4-(hydroxymethyl)-4-methylpiperidin-1-yl)pyridin-3-yl)ethynyl)-1H-pyrazol-1-yl)piperidin-1-yl)ethan-1-one] | 1.2 nM | 1.1 nM | 1.3 nM | 0.6 nM | 1.7 nM | 1.8 nM | 2.7 nM | 0.8 nM | 296 nM | 2.8 nM |
| CC(=O)N1CCC(n2cc(C#Cc3cnc(Nc4ccnc(-c5cnn(S(=O)(=O)C6CC6)c5)n4)cc3N3CCC(F)(CO)CC3)cn2)CC1 [Example 111, 1-(4-(4-((6-((2-(1-(Cyclopropylsulfonyl)-1H-pyrazol-4-yl)pyrimidin-4-yl)amino)-4-(4-fluoro-4-(hydroxymethyl)piperidin-1-yl)pyridin-3-yl)ethynyl)-1H-pyrazol-1-yl)piperidin-1-yl)ethan-1-one] | 0.9 nM | 0.8 nM | 1.3 nM | 0.5 nM | 2 nM | 2 nM | 4.7 nM | 1.2 nM | 4380 nM | 6 nM |
